In patent US10913727B2, “Modulators of the integrated stress pathway” (Calico Life Sciences LLC, priority 2016, dated 2021):
pEC50: −log10 of the molar value.

Test system: HEK293T cells carrying the ATF4 luciferase reporter
Experiment: ATF4-Luc assay, in vitro model of Vanishing Cell White Matter Disease (VWMD)
Format: cell-based
Conditions: Homo sapiens, HEK-293T, 1 μg/mL tunicamycin, 7 hours, One Glo luminescence
Experimental: In order to test exemplary compounds of the invention in a cellular context, a stable VWMD cell line was first constructed. The ATF4 reporter was prepared by fusing the human full-length ATF4 5′-UTR (NCBI Accession No. BC022088.2) in front of the firefly luciferase (FLuc) coding sequence lacking the initiator methionine as described in Sidrauski et al (eLife 2013). The construct was used to produce recombinant retroviruses using standard methods and the resulting viral supernatant was used to transduce HEK293T cells, which were then subsequently selected with puromycin to generate a stable cell line.
HEK293T cells carrying the ATF4 luciferase reporter were plated on polylysine coated 384-well plates (Greiner Bio-one) at 30,000 cells per well. Cells were treated the next day with 1 μg/mL tunicamycin and 200 nM of a compound of Formula (I) for 7 hours. Luminescence was measured using One Glo (Promega) as specified by the manufacturer. Cells were maintained in DMEM with L-glutamine supplemented with 10% heat-inactivated FBS (Gibco) and Antibiotic-Antimycotic solution (Gibco).
Table 2 below summarizes the EC50 data obtained using the ATF4-Luc assay for exemplary compounds of the invention.

`COc1ncccc1C(=O)NC12CC(NC(=O)COc3ccc(Cl)c(F)c3)(C1)C2` [Compound 809, N-{3-[2-(4-chloro-3-fluorophenoxy)acetamido]bicyclo[1.1.1]pentan-1-yl}-2-methoxypyridine-3-carboxamide] gave a pEC50 of less than 5.70.
In the case of `CCn1ccc(C(=O)NC23CC(NC(=O)COc4ccc(Cl)c(F)c4)(C2)C3)cc1=O` [Compound 405, N-{3-[2-(4-chloro-3-fluorophenoxy)acetamido]bicyclo[1.1.1]pentan-1-yl}-1-ethyl-2-oxo-1,2-dihydropyridine-4-carboxamide], the pEC50 was less than 5.70.
`O=C(COc1ccc(Cl)c(F)c1)NC12CCC(NC(=O)c3ccc(CO)cn3)(CC1)C[C@@H]2O` [Compound 753, N-{(3S)-4-[2-(4-chloro-3-fluorophenoxy)acetamido]-3-hydroxybicyclo[2.2.2]octan-1-yl}-5-(hydroxymethyl)pyridine-2-carboxamide] showed a pEC50 of 6.00 to 6.60.
For `CCc1nc(C)c(C(=O)NC23CC(NC(=O)COc4ccc(Cl)c(F)c4)(C2)C3)s1` [Compound 294, N-{3-[2-(4-chloro-3-fluorophenoxy)acetamido]bicyclo[1.1.1]pentan-1-yl}-2-ethyl-4-methyl-1,3-thiazole-5-carboxamide], the pEC50 was 6.60 to 7.30.
`O=C(COc1ccc(Cl)c(F)c1)NC12CC(NC(=O)c3cccc[n+]3[O-])(C1)C2` [Compound 403, N-{3-[2-(4-chloro-3-fluorophenoxy)acetamido]bicyclo[1.1.1]pentan-1-yl}-1-oxo-1λ^5-pyridine-2-carboxamide] was tested, and the pEC50 was less than 5.70.
`COc1cc(C(=O)NC23CCC(NC(=O)COc4ccc(Cl)c(F)c4)(C2)C3)on1` [Compound 707, N-{4-[2-(4-chloro-3-fluorophenoxy)acetamido]bicyclo[2.1.1]hexan-1-yl}-3-methoxy-1,2-oxazole-5-carboxamide] gave a pEC50 of 6.00 to 6.60.
Compound `O=C(COc1ccc(Cl)c(F)c1)NC12CC(NC(=O)c3ccc(Cl)cn3)(C1)C2` [Compound 686, 5-chloro-N-{3-[2-(4-chloro-3-fluorophenoxy)acetamido]bicyclo[1.1.1]pentan-1-yl}pyridine-2-carboxamide] has a pEC50 greater than 7.30.
`O=C(COc1ccc(Cl)c(F)c1)NC12CCC(NC(=O)c3ccncc3)(CC1)C(O)C2` (stereo not shown) [Compound 218, N-{4-[2-(4-chloro-3-fluorophenoxy)acetamido]-2-hydroxybicyclo[2.2.2]octan-1-yl}pyridine-4-carboxamide] was tested, and the pEC50 was less than 5.70.
For `COc1ccsc1C(=O)NC12CC(NC(=O)COc3ccc(Cl)c(F)c3)(C1)C2` [Compound 548, N-{3-[2-(4-chloro-3-fluorophenoxy)acetamido]bicyclo[1.1.1]pentan-1-yl}-3-methoxythiophene-2-carboxamide], the pEC50 was less than 5.70.
Work on `O=C(COc1ccc(Cl)c(F)c1)NC12CC(NC(=O)c3coc(-c4ccc(Cl)c(F)c4)n3)(C1)C2` [Compound 108, N-{3-[2-(4-chloro-3-fluorophenoxy)acetamido]bicyclo[1.1.1]pentan-1-yl}-2-(4-chloro-3-fluorophenyl)-1,3-oxazole-4-carboxamide] yielded a pEC50 greater than 7.30.
With `Cc1nn(C)cc1-c1ccnc(NC23CC(NC(=O)COc4ccc(Cl)c(F)c4)(C2)C3)n1` [Compound 429, 2-(4-chloro-3-fluorophenoxy)-N-(3-{[4-(1,3-dimethyl-1H-pyrazol-4-yl)pyrimidin-2-yl]amino}bicyclo[1.1.1]pentan-1-yl)acetamide] the pEC50 was less than 5.70.
`CCNc1ccc(C(=O)NC23CC(NC(=O)COc4ccc(Cl)c(F)c4)(C2)C3)nc1` [Compound 269, N-{3-[2-(4-chloro-3-fluorophenoxy)acetamido]bicyclo[1.1.1]pentan-1-yl}-5-(ethylamino)pyridine-2-carboxamide] was tested, and the pEC50 was 6.00 to 6.60.
With `O=C(COc1ccc(Cl)c(F)c1)NC12CC(Nc3nccn4nccc34)(C1)C2` [Compound 722, 2-(4-chloro-3-fluorophenoxy)-N-{3-[(pyrazolo[1,5-a]pyrazin-4-yl)amino]bicyclo[1.1.1]pentan-1-yl}acetamide] the pEC50 was 6.60 to 7.30.
With `COc1cc(C(=O)NC23CC(NC(=O)COc4ccc(Cl)c(F)c4)(C2)C3)c(OC)nn1` [Compound 788, N-{3-[2-(4-chloro-3-fluorophenoxy)acetamido]bicyclo[1.1.1]pentan-1-yl}-3,6-dimethoxypyridazine-4-carboxamide] the pEC50 was less than 5.70.
Work on `CC(C)(C)OC(=O)NCc1ccnc(C(=O)NC23CC(NC(=O)COc4ccc(Cl)c(Cl)c4)(C2)C3)c1` [Compound 580, tert-butyl {[2-({3-[2-(3,4-dichlorophenoxy)acetamido]bicyclo[1.1.1]pentan-1-yl}carbamoyl)pyridin-4-yl]methyl}carbamate] yielded a pEC50 of less than 5.70.
`O=C(COc1ccc(Cl)c(F)c1)NC12CC(NC(=O)c3cnn4c3CCCC4)(C1)C2` [Compound 903, N-{3-[2-(4-chloro-3-fluorophenoxy)acetamido]bicyclo[1.1.1]pentan-1-yl}-4,5,6,7-tetrahydropyrazolo[1,5-a]pyridine-3-carboxamide] showed a pEC50 of less than 5.70.
`CC(C)Oc1ccc(C(=O)NC23CC(NC(=O)COc4ccc(Cl)c(F)c4)(C2)C3)cc1` [Compound 232, N-{3-[2-(4-chloro-3-fluorophenoxy)acetamido]bicyclo[1.1.1]pentan-1-yl}-4-[(propan-2-yl)oxy]benzamide] was tested, and the pEC50 was 6.60 to 7.30.
`O=C(COc1ccc(Cl)c(F)c1)NC12CC(NC(=O)c3coc4c3C(=O)CCC4)(C1)C2` [Compound 315, N-{3-[2-(4-chloro-3-fluorophenoxy)acetamido]bicyclo[1.1.1]pentan-1-yl}-4-oxo-4,5,6,7-tetrahydro-1-benzofuran-3-carboxamide] was tested, and the pEC50 was 6.00 to 6.60.
With `Cc1ccc2nc(C(=O)NC34CC(NC(=O)COc5ccc(Cl)c(F)c5)(C3)C4)cn2c1` [Compound 787, N-{3-[2-(4-chloro-3-fluorophenoxy)acetamido]bicyclo[1.1.1]pentan-1-yl}-6-methylimidazo[1,2-a]pyridine-2-carboxamide] the pEC50 was less than 5.70.
`O=C(COc1ccc(Cl)c(F)c1)NC12CC(NC(=O)c3ccc4nccn4c3)(C1)C2` [Compound 811, N-{3-[2-(4-chloro-3-fluorophenoxy)acetamido]bicyclo[1.1.1]pentan-1-yl}imidazo[1,2-a]pyridine-6-carboxamide] gave a pEC50 of less than 5.70.
`Cc1noc(C(=O)NC23CCC(NC(=O)COc4ccc(Cl)c(F)c4)(CC2)[C@@H](O)C3)n1` [Compound 575, N-{(3S)-4-[2-(4-chloro-3-fluorophenoxy)acetamido]-3-hydroxybicyclo[2.2.2]octan-1-yl}-3-methyl-1,2,4-oxadiazole-5-carboxamide] gave a pEC50 greater than 7.30.
`O=C(COc1ccc(Cl)c(F)c1)NC12CC(NC(=O)c3ccnc(C(=O)NCCO)c3)(C1)C2` [Compound 288, N^4-{3-[2-(4-chloro-3-fluorophenoxy)acetamido]bicyclo[1.1.1]pentan-1-yl}-N^2-(2-hydroxyethyl)pyridine-2,4-dicarboxamide] was tested, and the pEC50 was less than 5.70.
`Cc1nc(C(=O)NC23CC(NC(=O)COc4ccc(Cl)c(F)c4)(C2)C3)co1` [Compound 249, N-{3-[2-(4-chloro-3-fluorophenoxy)acetamido]bicyclo[1.1.1]pentan-1-yl}-2-methyl-1,3-oxazole-4-carboxamide] gave a pEC50 of 6.60 to 7.30.
Compound `COCc1nc(C(=O)NC23CC(NC(=O)COc4ccc(Cl)c(Cl)c4)(C2)C3)cs1` [Compound 925, N-{3-[2-(3,4-dichlorophenoxy)acetamido]bicyclo[1.1.1]pentan-1-yl}-2-(methoxymethyl)-1,3-thiazole-4-carboxamide] has a pEC50 greater than 7.30.
In the case of `O=C(COc1ccc(Cl)c(F)c1)NC12CC(NC(=O)c3cc4ccccc4o3)(C1)C2` [Compound 317, N-{3-[2-(4-chloro-3-fluorophenoxy)acetamido]bicyclo[1.1.1]pentan-1-yl}-1-benzofuran-2-carboxamide], the pEC50 was greater than 7.30.
Work on `Cc1cnc(C(=O)NC23CC(NC(=O)COc4ccc(Cl)c(F)c4)(C2)C3)nc1` [Compound 268, N-{3-[2-(4-chloro-3-fluorophenoxy)acetamido]bicyclo[1.1.1]pentan-1-yl}-5-methylpyrimidine-2-carboxamide] yielded a pEC50 of 6.60 to 7.30.
For `O=C(COc1ccc(C(F)(F)F)nc1)NC12CC(NC(=O)c3ccc(OC(F)(F)F)cn3)(C1)C2` [Compound 454, 5-(trifluoromethoxy)-N-[3-(2-{[6-(trifluoromethyl)pyridin-3-yl]oxy}acetamido)bicyclo[1.1.1]pentan-1-yl]pyridine-2-carboxamide], the pEC50 was 6.60 to 7.30.
`Cc1ncc(C(=O)NC23CC(NC(=O)COc4ccc(Cl)c(Cl)c4)(C2)C3)s1` [Compound 585, N-{3-[2-(3,4-dichlorophenoxy)acetamido]bicyclo[1.1.1]pentan-1-yl}-2-methyl-1,3-thiazole-5-carboxamide] showed a pEC50 of 6.60 to 7.30.
In the case of `O=C(COc1ccc(Cl)c(F)c1)NC12CC(NC(=O)c3ccc(CCC4CC4)cn3)(C1)C2` [Compound 289, N-{3-[2-(4-chloro-3-fluorophenoxy)acetamido]bicyclo[1.1.1]pentan-1-yl}-5-(2-cyclopropylethyl)pyridine-2-carboxamide], the pEC50 was greater than 7.30.
In the case of `Cc1ccc(S(=O)(=O)NC23CC(NC(=O)COc4ccc(Cl)c(F)c4)(C2)C3)cc1` [Compound 662, 2-(4-chloro-3-fluorophenoxy)-N-{3-[(4-methylbenzene-1-sulfonyl)amino]bicyclo[1.1.1]pentan-1-yl}acetamide], the pEC50 was less than 5.70.
`COc1ccc(C(=O)NC23CCC(NC(=O)COc4ccc(Cl)c(F)c4)(CC2)C(O)C3)nc1` (stereo not shown) [Compound 922, N-{4-[2-(4-chloro-3-fluorophenoxy)acetamido]-3-hydroxybicyclo[2.2.2]octan-1-yl}-5-methoxypyridine-2-carboxamide] gave a pEC50 of 6.00 to 6.60.
